According to patent US11547681B2, “N-acylethanolamide derivatives and uses thereof” (ELIEM THERAPEUTICS, INC., priority 2016, dated 2023):

Experiments:
in vitro = details: male, CD-1, mouse; for Concentration (μM) of analyte PEA, 0 min / Concentration (μM) of analyte PEA, 10 min / Concentration (μM) of analyte PEA, 20 min / Concentration (μM) of analyte PEA, 30 min / Concentration (μM) of analyte PEA, 60 min / % Remaining of Initial (n = 1), 0 min / % Remaining of Initial (n = 1), 10 min / % Remaining of Initial (n = 1), 20 min / % Remaining of Initial (n = 1), 30 min / % Remaining of Initial (n = 1), 60 min / Measured concentration of PEA (analyte) / % Remaining of Initial: 1 μM
Method: (§1) Reaction mixture, minus cofactors, was prepared as described below. Test article was added into the reaction mixture at a final concentration of 1 μM. […] An aliquot of the reaction mixture (without cofactor cocktail) was equilibrated in a shaking water bath at 37° C. for 3 minutes. The reaction was initiated by the addition of cofactor cocktail, and the mixture was incubated in a shaking water bath at 37° C. Aliquots (100 μL) were withdrawn at 0, 10, 20, 30, and 60 minutes. Test article samples were immediately combined with 300 μL of ice-cold acetonitrile containing 1% formic acid. Control samples were immediately combined with 400 μL of ice-cold 50/50 acetonitrile (ACN)/dH2O containing 0.1% formic acid and internal standard to terminate the reaction. Samples were then mixed and centrifuged to precipitate proteins. Calibration standards were prepared in matched matrix. Samples and standards were assayed by LC-MS/MS using electrospray ionization for both the dosed prodrug and the expected drug (PEA). Analytical conditions are outlined in Appendix 8-1. Test article concentration at each time point was compared to test article concentration at time 0 to determine the percent remaining at each time point. Halflives were calculated using GraphPad software, fitting to a single-phase exponential decay equation.
as §1, with “for 5” for “for 3”, “minutes. Reaction” for “minutes. The reaction”, “and” for “and the”, “both” for “both the”, “Appendix 10-1.” for “Appendix 8-1.”
Reaction mixture, minus cofactors, was prepared as described below. Test article was added into the reaction mixture at a final concentration of 1 μM. […] An aliquot of the reaction mixture (without cofactor cocktail) was equilibrated in a shaking water bath at 37° C. for 3 minutes. Reaction was initiated by the addition of cofactor cocktail, and the mixture was incubated in a shaking water bath at 37° C. Aliquots (100 μL) were withdrawn at 0, 10, 20, 30, and 60 minutes. Test article samples were immediately combined with 300 μL of ice-cold acetonitrile containing 1% formic acid. Control samples were immediately combined with 400 μL of ice-cold 50/50 acetonitrile (ACN)/dH2O containing 0.1% formic acid and internal standard to terminate the reaction. Samples were then mixed and centrifuged to precipitate proteins. Calibration standards were prepared in matched matrix. Samples and standards were assayed by LC-MS/MS using electrospray ionization for both dosed prodrug and expected drug (PEA). Analytical conditions are outlined in Appendix 13-1. Test article concentration at each time point was compared to test article concentration at time 0 to determine the percent remaining at each time point. Halflives were calculated using GraphPad software, fitting to a single-phase exponential decay equation.

[1] = Plasma stability (37° C., pH 7.4), mouse; assay type: in vitro ADME, CD-1 mouse; details: for half-life at 1 μM: male, CD-1, mouse, plasma, pH 7.4, mouse plasma, read-out: Half-life; for % Remaining of Initial (n = 1), 0 min / % Remaining of Initial (n = 1), 15 min / % Remaining of Initial (n = 1), 30 min / % Remaining of Initial (n = 1), 60 min / % Remaining of Initial (n = 1), 120 min / % Remaining of Initial: mouse plasma; for % Remaining of Initial (n = 1), 0 min: pH 7.4, 0 min; for % Remaining of Initial (n = 1), 15 min: pH 7.4, 15 min; for % Remaining of Initial (n = 1), 30 min: pH 7.4, 30 min; for % Remaining of Initial (n = 1), 60 min: pH 7.4, 60 min; for % Remaining of Initial (n = 1), 120 min: pH 7.4, 120 min; for % Remaining of Initial: 1 μM, n = 1
Method: (§2) Studies were carried out in mixed-gender human plasma (Lot #GLP530-5), male Sprague-Dawley rat (Lot #RAT297944, RAT313140), male CD-1 mouse (Lot #MSE237700), and male Beagle dog (Lot #BGL87670, BGL82614), collected on sodium heparin. Plasma was adjusted to pH 7.4 prior to initiating the experiments. DMSO stocks were first prepared for the test articles. Aliquots of the DMSO solutions were dosed into 700 μL of plasma, which had been pre-warmed to 37° C., at a final test article concentration of 1 μM. […] Samples were stored at 4° C. until the end of the experiment. After the final time point was sampled, the plate was mixed and then centrifuged at 3,000 rpm for 10 minutes. Calibration standards were prepared in matched matrix. […] Analytical conditions are outlined in Appendix 8-1.
as §2, with “#AS1650-2),” for “#GLP530-5),”, “#RAT297944),” for “#RAT297944, RAT313140),”, “CD-I” for “CD-1”, “#BGL91384),” for “#BGL87670, BGL82614),”, “10-1.” for “8-1.”
Studies were carried out in mixed-gender human plasma (Lot #AS1650-2), male Sprague-Dawley rat (Lot #RAT297944), male CD-1 mouse (Lot #MSE237700), and male Beagle dog (Lot #BGL91384), collected on sodium heparin. Plasma was adjusted to pH 7.4 prior to initiating the experiments. DMSO stocks were first prepared for test articles. […] Samples were stored at 4° C. until the end of experiment. After the final time point was sampled, the plate was mixed and then centrifuged at 3,000 rpm for 10 minutes. Calibration standards were prepared in matched matrix. […] Analytical conditions are outlined in Appendix 13-1.
Studies were carried out in mixed-gender human plasma (Lot #AS 1650-2), male Sprague-Dawley rat (Lot #RAT320835), male CD-1 mouse (Lot #MSE260693), and 6 male Beagle dog (Lot #BGL91384), on sodium heparin. Plasma was adjusted to pH 7.4 prior to initiating the experiments. DMSO stocks were first prepared for the test articles. Aliquots of the DMSO solutions were dosed into 700 μL of plasma, which had been pre-warmed to 37° C., at a final test article concentration of 1 μM. […] Samples were stored at 4° C. until the end of the experiment. After the final time point was sampled, the plate was mixed and then centrifuged at 3,000 rpm for 10 minutes. Calibration standards were prepared in matched matrix. […] Analytical conditions are outlined in Appendix 17-1.

[2] = test article 1 μM, 37° C., pH 7.4

| SMILES | Concentration (μM) of analyte PEA, 0 min (in vitro; 0 min) [µM] | Concentration (μM) of analyte PEA, 10 min (in vitro; 10 min) [µM] | Concentration (μM) of analyte PEA, 20 min (in vitro; 20 min) [µM] | Concentration (μM) of analyte PEA, 30 min (in vitro; 30 min) [µM] | Concentration (μM) of analyte PEA, 60 min (in vitro; 60 min) [µM] | % Remaining of Initial (n = 1), 0 min (in vitro; s9, 0 h) [%] | % Remaining of Initial (n = 1), 10 min (in vitro; s9, 10 min) [%] | % Remaining of Initial (n = 1), 20 min (in vitro; s9, 20 min) [%] | % Remaining of Initial (n = 1), 30 min (in vitro; s9, 0.5 h) [%] | % Remaining of Initial (n = 1), 60 min (in vitro; s9, 1 h) [%] | half-life at 1 μM [1, 2] [min] | % Remaining of Initial (n = 1), 0 min ([1]; test article 1 μM, 37° C.) [%] | % Remaining of Initial (n = 1), 15 min ([1]; test article 1 μM, 37° C.) [%] | % Remaining of Initial (n = 1), 30 min ([1]; test article 1 μM, 37° C.) [%] | % Remaining of Initial (n = 1), 60 min ([1]; test article 1 μM, 37° C.) [%] | % Remaining of Initial (n = 1), 120 min ([1]; test article 1 μM, 37° C.) [%] | microsomal CLint at 1 μM (in vitro; s9, CLint (mL/min/mg protein)) [µL/min/mg] | half-life at 1 μM (in vitro; s9, Half-life (min)) [min] | further results |
| --- | --- | --- | --- | --- | --- | --- | --- | --- | --- | --- | --- | --- | --- | --- | --- | --- | --- | --- | --- |
| CCCCCCCCCCCCCCCC(=O)NCCOC(=O)CCC(=O)OC[C@H]1O[C@@](CO)(O[C@H]2O[C@H](CO)[C@@H](O)[C@H](O)[C@H]2O)[C@@H](O)[C@@H]1O [Compound I-7] | 0.033 | 0.24 | 0.29 | 0.39 | 0.38 | 100 | 59 | 35 | 27 | 5.7 | < 1 | 100 | <1.0 | <1.0 | <1.0 | <1.0 | – | – | – |
| CCCCCCCCCCCCCCCC(=O)NCCOC(=O)CCC(=O)OC(CO)CO [Compound I-8] | – | – | – | – | – | – | – | – | – | – | – | – | – | – | – | – | – | – | Measured concentration of PEA (analyte) (in vitro; 0 min): 0.012 µM; Measured concentration of PEA (analyte) (in vitro; 10 min): 0.12 µM; Measured concentration of PEA (analyte) (in vitro; 20 min): 0.19 µM; Measured concentration of PEA (analyte) (in vitro; 30 min): 0.22 µM; Measured concentration of PEA (analyte) (in vitro; 60 min): 0.26 µM; % Remaining of Initial (in vitro; s9, 0 h): 100%; % Remaining of Initial (in vitro; s9, 10 min): 65%; % Remaining of Initial (in vitro; s9, 20 min): 45%; % Remaining of Initial (in vitro; s9, 0.5 h): 31%; % Remaining of Initial (in vitro; s9, 1 h): 12%; microsomal CLint at 1 μM (in vitro; s9, CLint): 38.9 µL/min/mg; half-life at 1 μM (in vitro; s9, Half-life): 18 min; half-life at 1 μM [1]: < 1 min; % Remaining of Initial ([1]; 0 min): 100%; % Remaining of Initial ([1]; 15 min): <1.0%; % Remaining of Initial ([1]; 30 min): <1.0%; % Remaining of Initial ([1]; 60 min): <1.0%; % Remaining of Initial ([1]; 120 min): <1.0% |
| CCCCCCCCCCCCCCCC(=O)NCCOC(=O)CCC(=O)OCC(O)CO (stereo not shown) [Compound I-9] | 0.0024 | 0.12 | 0.15 | 0.19 | 0.23 | 100 | 56 | 33 | 21 | 6.5 | 13 | 100 | 49 | 17 | 2.3 | <1.0 | 53.7 | 13 | – |
| CCCCCCCCCCCCCCCC(=O)NCCOC(=O)CCC(=O)OCC(COC(=O)CCC)OC(=O)CCC (stereo not shown) [Compound I-11] | 0 | 0.021 | 0.059 | 0.12 | 0.084 | 100 | <1.0 | <1.0 | <1.0 | <1.0 | 3 | 100 | 2.9 | 2.1 | 1.9 | <1.0 | > 691 | < 1 | – |
